In patent US20230192617A1, “AZABICYCLIC(THIO)AMIDES AS FUNGICIDAL COMPOUNDS” (Bayer CropScience Aktiengesellschaft, priority 2020, published 2023) one finds inhibition, pest or weed control and chromatographic logP data, which are given here for 17 compounds.

In one data set the test system is Botrytis cinerea. The data set is described as follows: B-11. Botrytis cinerea in vitro cell test. Format: cell-based. Conditions: 144 h, 20 ppm of active ingredient, 6 days incubation, liquid culture, absorbance, read-out: efficacy (inhibition of fungal growth). The method in brief: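 B. cinerea spores were grown in liquid culture with compound (DMSO ≤1% final). Mycelium growth was measured spectrometrically after 6 days, with inhibition taken as absorbance relative to untreated control wells.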

Another data set concerns Sphaerotheca fuliginea. The experiment in a line: In vivo preventive test on Sphaerotheca fuliginea (powdery mildew on cucurbits). Conditions: Podosphaera fuliginea, 192 h; 500 ppm of active ingredient; preventive spray on gherkin; evaluated 8 days after inoculation; read-out: efficacy. The method in brief: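 Young gherkin plants were sprayed with compound in DMSO/acetone/Tween 80 diluted in water. They were inoculated 24 h later with a spore suspension of Sphaerotheca fuliginea. Plants were then kept for 8 days at 20 °C and 70–80% relative humidity.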

Data set [1] has as its system Colletotrichum lindemuthianum. The experiment in a line: B-8. Colletotrichum lindemuthianum in vitro cell test. Type of data set: cell-based. Conditions: 144 h, 20 ppm of active ingredient, 6 days incubation, liquid culture, absorbance, read-out: efficacy (inhibition of fungal growth). The method in brief: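 Spore suspension of C. lindemuthianum in liquid medium exposed to DMSO-solubilized compounds (final DMSO ≤1%) for 6 days. Mycelial growth read by absorbance, with inhibition calculated relative to compound-free control wells.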

Another data set deals with Alternaria alternata. The data set is described as follows: Alternaria alternata in vitro cell test. Conditions: 120 h, 20 ppm of active ingredient, liquid culture, 5 days incubation, spectrometric measurement of mycelium growth, read-out: efficacy (inhibition of fungal growth). Type of data set: cell-based. The method in brief: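 Liquid culture assay in which A. alternata spores in medium received DMSO-solubilized compound (final DMSO ≤1%). After 5 days, mycelium growth was measured spectrometrically. Inhibition was calculated against fungicide-free control wells.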

Another data set relates to Pyrenophora teres. The experiment in a line: B-10. Pyrenophora teres in vitro cell test. Type of data set: cell-based. Conditions: 144 h, 20 ppm of active ingredient, 6 days incubation, liquid culture, absorbance, read-out: efficacy (inhibition of fungal growth). The method in brief:
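Liquid-culture assay on a P. teres spore suspension with compounds added to the medium from DMSO solutions, final DMSO ≤1%. Mycelium growth read spectrometrically after 6 days. Inhibition calculated from absorbance against untreated control wells.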

For a further data set, the system named is Septoria tritici. The experiment in a line: B-9. Septoria tritici in vitro cell test. Type of data set: cell-based. To be noted: Zymoseptoria tritici, 168 h; 20 ppm of active ingredient; 7 days incubation; liquid culture, absorbance; read-out: efficacy (inhibition of fungal growth). The method in brief:
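Compounds from DMSO stocks (final DMSO ≤1%) were added to liquid medium containing S. tritici spores to test inhibition of germination and mycelial growth. After 7 days, mycelium growth was read spectrometrically and inhibition derived from absorbance versus fungicide-free control wells.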

The test system of the next data set is Alternaria brassicae. The experiment in a line: In vivo preventive test on Alternaria brassicae (leaf spot on radish or cabbage). To be noted: 500 ppm of active ingredient, preventive spray on radish or cabbage, evaluated 3 to 4 days after inoculation, read-out: efficacy. The method in brief:
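Young radish or cabbage plants were sprayed with compound dissolved in DMSO/acetone/Tween 80 and diluted in water; controls received solvent only. Inoculation by spraying A. brassicae spore suspension 24 h later, then 3–4 days at 20 °C and 100% relative humidity.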

The nature of data set [2]: Measurement of Log P values by HPLC on reversed phase columns (EEC directive 79/831 Annex V.A8). Type of data set: physicochemical. To be noted: reversed phase HPLC column, method [a]: LC-UV, acidic range, 0.1% formic acid in water and acetonitrile as eluent. The method in brief:
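Reversed-phase HPLC with UV detection per EEC 79/831 Annex V.A8, linear 10–95% acetonitrile gradient. Aqueous eluent: 0.1% formic acid (acidic), 0.001 M ammonium acetate (neutral), or 0.1% phosphoric acid (acidic); multiple values in one method joined by "+".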

As to `Cc1ccc(C(F)(F)CNC(=O)c2c(Oc3cccc(C4CC4)c3F)nnc3c2CCCC3)c(Cl)c1` [I-141], the inhibition at 20 ppm (in the data set with Botrytis cinerea; in data set [1]; in the data set with Alternaria alternata; in the data set on Pyrenophora teres; in the data set with Septoria tritici) was 90 to 100% each time. For the same compound, the pest or weed control at 500 ppm in the data set with Sphaerotheca fuliginea and with Alternaria brassicae was 90 to 100% in each case. The compound also had a chromatographic logP in data set [2] of 4.17.
`Cc1ccc(C(F)(F)CNC(=O)c2c(Oc3cccc(C(F)(F)F)c3)nnc3c2CCC3)c(Cl)c1` [I-142]: the inhibition at 20 ppm (with Botrytis cinerea; in data set [1]; with Alternaria alternata; in the data set on Pyrenophora teres; in the data set on Septoria tritici) was 90 to 100% throughout. Further, the pest or weed control at 500 ppm in the data set with Sphaerotheca fuliginea and with Alternaria brassicae was 90 to 100% in each case. Moreover, the chromatographic logP in data set [2] is 3.94.
In the case of `Cc1ccc(C(F)(F)CNC(=O)c2c(Oc3cccc(Cl)c3F)nnc3c2CCC3)c(Cl)c1` [I-143], the inhibition at 20 ppm (in the data set with Botrytis cinerea; in data set [1]; in the data set with Alternaria alternata; in the data set with Pyrenophora teres; with Septoria tritici) was 90 to 100% throughout. For the same compound, the pest or weed control at 500 ppm in the data set with Sphaerotheca fuliginea and in the data set on Alternaria brassicae was 90 to 100% throughout. Also, the chromatographic logP in data set [2] was 3.84.
In the case of `Cc1ccc(C(F)(F)CNC(=O)c2c(Oc3cccc(C4CC4)c3F)nnc3c2CCC3)c(Cl)c1` [I-144], the inhibition at 20 ppm lay in the range of 90 to 100% in the data set on Botrytis cinerea; 90 to 100% in data set [1]; 90 to 100% in the data set on Alternaria alternata; 90 to 100% in the data set on Pyrenophora teres; 80 to 89% with Septoria tritici. Besides, the pest or weed control at 500 ppm in the data set on Sphaerotheca fuliginea and in the data set on Alternaria brassicae was 90 to 100% in each case. Further, the chromatographic logP in data set [2] is 4.05.
With `Cc1cc(Cl)ccc1C(F)(F)CNC(=O)c1c(Oc2cccc(C(F)(F)F)c2)nnc2c1CCCC2` [I-145], the inhibition at 20 ppm (in the data set on Botrytis cinerea; in data set [1]; in the data set on Alternaria alternata; with Pyrenophora teres; in the data set with Septoria tritici) was 90 to 100% each time. For the same compound, the pest or weed control at 500 ppm in the data set on Sphaerotheca fuliginea and with Alternaria brassicae was 90 to 100% in each case. In data set [2], this compound showed a chromatographic logP of 4.28.
In the case of `Cc1cc(Cl)ccc1C(F)(F)CNC(=O)c1c(Oc2cccc(Cl)c2)nnc2c1CCCC2` [I-146], the inhibition at 20 ppm fell in the range of 90 to 100% in the data set with Botrytis cinerea; 70 to 79% in data set [1]; 90 to 100% in the data set with Alternaria alternata; 90 to 100% in the data set with Pyrenophora teres; 90 to 100% with Septoria tritici. In addition, the pest or weed control at 500 ppm in the data set on Sphaerotheca fuliginea and in the data set with Alternaria brassicae was 90 to 100% in each case. In addition, the chromatographic logP in data set [2] was found to be 4.11.
Take `Cc1cc(Cl)ccc1C(F)(F)CNC(=O)c1c(Oc2cccc(Cl)c2F)nnc2c1CCC2` [I-148]: the inhibition at 20 ppm fell in the range of 90 to 100% with Botrytis cinerea; 80 to 89% in data set [1]; 90 to 100% in the data set on Alternaria alternata; 90 to 100% in the data set on Pyrenophora teres; 80 to 89% in the data set on Septoria tritici. Also, the pest or weed control at 500 ppm with Sphaerotheca fuliginea and in the data set with Alternaria brassicae was 90 to 100% each time. This compound returned a chromatographic logP in data set [2] of 4.
As for `O=C(NCC(F)c1ccc(Cl)cc1Cl)c1c(Oc2cccc(Cl)c2F)nnc2c1CCCC2` (stereo not shown) [I-149], the inhibition at 20 ppm (with Botrytis cinerea; in data set [1]; in the data set on Alternaria alternata; in the data set with Pyrenophora teres; with Septoria tritici) was 90 to 100% in each case. For the same compound, the pest or weed control at 500 ppm in the data set with Sphaerotheca fuliginea and with Alternaria brassicae was 90 to 100% each time. The compound further showed a chromatographic logP in data set [2] of 3.94.
`Cc1cc(Br)ccc1C(F)(F)CNC(=O)c1c(Oc2cccc(C(F)F)c2)nnc2c1CCCC2` [I-150]: the inhibition at 20 ppm (in the data set with Botrytis cinerea; in data set [1]; in the data set on Alternaria alternata; in the data set with Pyrenophora teres; with Septoria tritici) was 90 to 100% throughout. Further, the pest or weed control at 500 ppm in the data set on Sphaerotheca fuliginea and with Alternaria brassicae was 90 to 100% each time. In data set [2], this compound registered a chromatographic logP of 3.84.
Regarding `Cc1cc(Br)ccc1C(F)(F)CNC(=O)c1c(Oc2cccc(Cl)c2)nnc2c1CCCC2` [I-151], the inhibition at 20 ppm (with Botrytis cinerea; in data set [1]; with Alternaria alternata; in the data set with Pyrenophora teres; with Septoria tritici) was 90 to 100% in each case. Moreover, the pest or weed control at 500 ppm in the data set with Sphaerotheca fuliginea and with Alternaria brassicae was 90 to 100% throughout. The chromatographic logP in data set [2] is 4.17.
As to `Cc1cc(Br)ccc1C(F)(F)CNC(=O)c1c(Oc2cccc(Cl)c2F)nnc2c1CCCC2` [I-152], the inhibition at 20 ppm (in the data set on Botrytis cinerea; in data set [1]; in the data set on Alternaria alternata; with Pyrenophora teres; in the data set with Septoria tritici) was 90 to 100% in each case. The pest or weed control at 500 ppm in the data set with Sphaerotheca fuliginea and with Alternaria brassicae was 90 to 100% in each case. This compound also returned a chromatographic logP in data set [2] of 4.44.
Consider `O=C(NCC(F)c1ccc(Cl)cc1Cl)c1c(Oc2cccc(C(F)(F)F)c2)nnc2c1CCC2` (stereo not shown) [I-186], for which the inhibition at 20 ppm (in the data set on Botrytis cinerea; in data set [1]; in the data set with Alternaria alternata; in the data set on Pyrenophora teres; with Septoria tritici) was 90 to 100% each time. Also, the pest or weed control at 500 ppm in the data set on Sphaerotheca fuliginea and with Alternaria brassicae was 90 to 100% throughout. The chromatographic logP in data set [2] amounted to 4.
Take `O=C(NCC(F)c1ccc(Cl)cc1Cl)c1c(Oc2cccc(Cl)c2F)nnc2c1CCC2` (stereo not shown) [I-188]: the inhibition at 20 ppm (with Botrytis cinerea; in data set [1]; in the data set on Alternaria alternata; with Pyrenophora teres; with Septoria tritici) was 90 to 100% each time. Moreover, the pest or weed control at 500 ppm in the data set with Sphaerotheca fuliginea and in the data set on Alternaria brassicae was 90 to 100% each time. In data set [2], the chromatographic logP came out at 3.89.
Consider `O=C(NCC(F)(F)c1ccc(Br)cc1Cl)c1c(Oc2cccc(C(F)(F)F)c2)nnc2c1CCC2` [I-212], for which the inhibition at 20 ppm (in the data set on Botrytis cinerea; in data set [1]; in the data set with Alternaria alternata; with Pyrenophora teres; with Septoria tritici) was 90 to 100% throughout. Further, the pest or weed control at 500 ppm in the data set on Sphaerotheca fuliginea and in the data set on Alternaria brassicae was 90 to 100% each time. Moreover, the chromatographic logP in data set [2] is 4.17.
Turning to `O=C(NCC(F)(F)c1ccc(Br)cc1Cl)c1c(Oc2cccc(Cl)c2F)nnc2c1CCC2` [I-213], the inhibition at 20 ppm (with Botrytis cinerea; in data set [1]; in the data set with Alternaria alternata; in the data set on Pyrenophora teres; in the data set on Septoria tritici) was 90 to 100% throughout. In addition, the pest or weed control at 500 ppm with Sphaerotheca fuliginea and with Alternaria brassicae was 90 to 100% in each case. The compound also registered a chromatographic logP in data set [2] of 4.05.
For the compound `Cc1ccc(C(F)(F)CNC(=O)c2c(Oc3cccc(Br)c3)nnc3ccccc23)c(C)c1` [I-216], the inhibition at 20 ppm was 90 to 100% in the data set with Botrytis cinerea; 90 to 100% in data set [1]; 90 to 100% in the data set on Alternaria alternata; 90 to 100% in the data set with Pyrenophora teres; 80 to 89% in the data set on Septoria tritici. Further, the pest or weed control at 500 ppm with Sphaerotheca fuliginea and in the data set with Alternaria brassicae was 90 to 100% in each case. The compound further gave a chromatographic logP in data set [2] of 4.38.
Consider `Cc1ccc(C(F)(F)CNC(=O)c2c(Oc3cccc(C(F)F)c3)cnc3ccccc23)c(C)c1` [I-220], for which the inhibition at 20 ppm (in the data set with Botrytis cinerea; in data set [1]; in the data set with Alternaria alternata; in the data set on Pyrenophora teres; in the data set on Septoria tritici) was 90 to 100% throughout. In addition, the pest or weed control at 500 ppm in the data set with Sphaerotheca fuliginea and with Alternaria brassicae was 90 to 100% each time. Moreover, in data set [2], the chromatographic logP is 4.08.
